In paper PMC2949399, “Gene Expression Signature-Based Screening Identifies New Broadly Effective Influenza A Antivirals” (PLoS ONE, 2010):
Read-outs that look alike come from different tables or passages of the source.

Tests used:
[1] = in vitro; details: human
[2] = test system: A/Lyon/969/09 (H1N1 SOIV); assay: microbe, parasite or virus in culture; details: Influenza A virus
[3] = test system: influenza A viruses; assay type: cell-based, influenza A virus
[4] = test system: A/Lyon/969/09 (H1N1 SOIV)
[5] = test system: A/Turkey/582/2006 (H5N1); assay: microbe, parasite or virus in culture; details: Influenza A virus
[6] = test system: A/Chicken/Italy/2076/99 (H7N1); assay: microbe, parasite or virus in culture; details: Influenza A virus, H7N1, A549, in Gallus gallus, 65 h
[7] = test system: A/Finch/England/2051/94 (H5N2); assay: microbe, parasite or virus in culture; details: Influenza A virus, H5N2, A549, 65 h
[8] = test system: A549 cells
[9] = test system: A/New Caledonia/20/99 (H1N1); assay: microbe, parasite or virus in culture; details: Influenza A virus
[10] = test system: A/New Caledonia/20/99 (H1N1)
[11] = test system: A/Chicken/Italy/2076/99 (H7N1)
[12] = test system: A/Finch/England/2051/94 (H5N2)
[13] = test system: A/Turkey/582/2006 (H5N1)
[14] = H1N1, A549, 65 h, read-out: EC50 SOIV moi 0.2
[15] = H1N1, A549, 65 h, read-out: EC50 SOIV moi 2
[16] = H5N1, A549, 65 h, read-out: EC50 H5N1 moi 0.2
[17] = H5N1, A549, 65 h, read-out: EC50 H5N1 moi 2
[18] = H1N1, A549, 65 h, read-out: EC50 H1N1 moi 0.2
[19] = H1N1, A549, 65 h, read-out: EC50 H1N1 moi 2

O=C(O)CNC(=O)C(CS)Cc1ccccc1 (racemic) [DL-Thiorphan]
CC50 [1]: 6280 µM

Nc1ccccc1S(N)(=O)=O [2-Aminobenzenesulfonamide, 2-aminobenzenesulfonamide]
EC50 [2, 14]: 534 µM
EC50 [2, 15]: 1820 µM
CC50 [1]: > 6900 µM
Inhibitor class across the tested viruses [3]: inefficient
SI = CC50/EC50, H1N1 SOIV [4]: 13
EC50 [5, 16]: > 690 µM
EC50 [5, 17]: > 690 µM
EC50 ([6]; read-out: EC50 H7N1 moi 0.2): > 690 µM
EC50 ([6]; read-out: EC50 H7N1 moi 2): > 690 µM
EC50 ([7]; read-out: EC50 H5N2 moi 0.2): > 690 µM
EC50 ([7]; read-out: EC50 H5N2 moi 2): > 690 µM
Cytotoxicity at the highest tested dose [8]: none of these molecules was cytotoxic at the highest tested dose
EC50 [9, 18]: > 690 µM
EC50 [9, 19]: > 690 µM

CCN[C@H]1CN(CCCOC)S(=O)(=O)c2sc(S(N)(=O)=O)cc21 [Brinzolamide, brinzolamide]
EC50 [2, 14]: 21.6 µM
EC50 [2, 15]: 167 µM
CC50 [1]: 666 µM
Inhibitor class across the tested viruses [3]: weak to moderate inhibitors
Inhibitor class / antiviral effect, H1N1 [10]: moderate inhibitor
SI = CC50/EC50, H1N1 SOIV [4]: 31
EC50 [5, 16]: > 500 µM
EC50 [5, 17]: > 500 µM
Inhibitor class, H7N1 [11]: weak inhibitor
EC50 ([6]; read-out: EC50 H7N1 moi 0.2): 139 µM
EC50 ([6]; read-out: EC50 H7N1 moi 2): 551 µM
EC50 ([7]; read-out: EC50 H5N2 moi 0.2): 146 µM
EC50 ([7]; read-out: EC50 H5N2 moi 2): 232 µM
EC50 [9, 18]: 28.9 µM
EC50 [9, 19]: 435 µM
Inhibitor class, H5N2 [12]: weak inhibitor

Nc1nc2c(c(=O)[nH]1)N(C=O)C(CNc1ccc(C(=O)N[C@@H](CCC(=O)O)C(=O)O)cc1)CN2 (stereo partly drawn) [Calcium Folinate, calcium folinate]
EC50 [2, 14]: > 2400 µM
EC50 [2, 15]: > 2400 µM
CC50 [1]: > 2400 µM
Inhibitor class across the tested viruses [3]: inefficient
EC50 [5, 16]: > 800 µM
EC50 [5, 17]: > 800 µM
EC50 ([6]; read-out: EC50 H7N1 moi 0.2): > 800 µM
EC50 ([6]; read-out: EC50 H7N1 moi 2): > 800 µM
EC50 ([7]; read-out: EC50 H5N2 moi 0.2): > 800 µM
EC50 ([7]; read-out: EC50 H5N2 moi 2): > 800 µM
Cytotoxicity at the highest tested dose [8]: none of these molecules was cytotoxic at the highest tested dose
EC50 [9, 18]: > 800 µM
EC50 [9, 19]: > 800 µM

C[S+](C)[O-] [DMSO, dimethylsulfoxide]
EC50 ([10]; read-out: EC50 H1N1 moi 0.2): 174 µM
EC50 ([10]; read-out: EC50 H1N1 moi 2): > 1600 µM
EC50 ([4]; read-out: EC50 SOIV moi 0.2): 344 µM
EC50 ([4]; read-out: EC50 SOIV moi 2): 606 µM
EC50 ([11]; read-out: EC50 H7N1 moi 0.2): 801 µM
EC50 ([11]; read-out: EC50 H7N1 moi 2): 1110 µM
EC50 ([13]; read-out: EC50 H5N1 moi 0.2): 1830 µM
EC50 ([13]; read-out: EC50 H5N1 moi 2): > 1600 µM
EC50 ([12]; read-out: EC50 H5N2 moi 0.2): 564 µM
EC50 ([12]; read-out: EC50 H5N2 moi 2): 734 µM

Cc1nccc2c1[nH]c1cc(O)ccc12.Cl [Harmol, harmol hydrochloride]
EC50 ([10]; read-out: EC50 H1N1 moi 0.2): 20.5 µM
EC50 ([10]; read-out: EC50 H1N1 moi 2): 60.4 µM
SI = CC50/EC50, H1N1 SOIV [4]: 14
EC50 ([4]; read-out: EC50 SOIV moi 0.2): 6.76 µM
EC50 ([4]; read-out: EC50 SOIV moi 2): 53.7 µM
EC50 ([11]; read-out: EC50 H7N1 moi 0.2): 28 µM
EC50 ([11]; read-out: EC50 H7N1 moi 2): 49.4 µM
EC50 ([13]; read-out: EC50 H5N1 moi 0.2): 43.4 µM
EC50 ([13]; read-out: EC50 H5N1 moi 2): 77.5 µM
CC50 [8]: 95 µM
EC50 ([12]; read-out: EC50 H5N2 moi 0.2): 13.5 µM
EC50 ([12]; read-out: EC50 H5N2 moi 2): 4.06 µM

CO[C@@]1(NC(=O)C(C(=O)O)c2ccc(O)cc2)C(=O)N2C(C(=O)O)=C(CSc3nnnn3C)CO[C@@H]21 (stereo partly drawn) [Latamoxef, moxalactam]
CC50 [1]: 593 µM

O=C([O-])c1ccccc1-c1c2cc(Br)c(=O)cc-2oc2[c]([Hg+])c([O-])c(Br)cc12.[Na+].[Na+].[OH-] [Merbromin, merbromine]
EC50 ([3]; read-out: EC50 (all viruses tested)): ~50 µM
SI = CC50/EC50, H1N1 [10]: 2.01
EC50 ([10]; read-out: EC50 H1N1 moi 0.2): 62 µM
EC50 ([10]; read-out: EC50 H1N1 moi 2): 29.6 µM
EC50 ([4]; read-out: EC50 SOIV moi 0.2): > 50 µM
EC50 ([4]; read-out: EC50 SOIV moi 2): 37.5 µM
SI = CC50/EC50, H7N1 [11]: 2.4
EC50 ([11]; read-out: EC50 H7N1 moi 0.2): 46.7 µM
EC50 ([11]; read-out: EC50 H7N1 moi 2): 43.7 µM
EC50 ([13]; read-out: EC50 H5N1 moi 0.2): 46 µM
EC50 ([13]; read-out: EC50 H5N1 moi 2): 45 µM
CC50 [8]: 104 µM
SI = CC50/EC50, H5N2 [12]: 2.7
EC50 ([12]; read-out: EC50 H5N2 moi 0.2): 21.9 µM
EC50 ([12]; read-out: EC50 H5N2 moi 2): 36.5 µM

Cc1cc(C(C)(C)CC(C)(C)C)ccc1OCCOCC[N+](C)(C)Cc1ccccc1 [Methylbenzethoniumchloride]
CC50 [8]: 6.35 µM

COc1ccc(OC)c(C(O)CNC(=O)CN)c1 (stereo not drawn) [Midodrine, midodrine]
EC50 [2, 14]: 109 µM
EC50 [2, 15]: 930 µM
CC50 [1]: > 4250 µM
Inhibitor class across the tested viruses [3]: weak to moderate inhibitors
SI = CC50/EC50, H1N1 SOIV [4]: 40
EC50 [5, 16]: 3900 µM
EC50 [5, 17]: > 4250 µM
EC50 ([6]; read-out: EC50 H7N1 moi 0.2): > 4250 µM
EC50 ([6]; read-out: EC50 H7N1 moi 2): > 4250 µM
SI = CC50/EC50, H5N1 [13]: 1.09
EC50 ([7]; read-out: EC50 H5N2 moi 0.2): 476 µM
EC50 ([7]; read-out: EC50 H5N2 moi 2): 1670 µM
Cytotoxicity at the highest tested dose [8]: none of these molecules was cytotoxic at the highest tested dose
EC50 [9, 18]: 29.8 µM
EC50 [9, 19]: 1570 µM

NC(=O)c1ncn([C@@H]2O[C@H](CO)[C@@H](O)[C@H]2O)n1 [Ribavirin, ribavirin]
EC50 [2, 14]: 61.1 µM
EC50 [2, 15]: 292 µM
EC50 ([2]; H1N1, A549, read-out: EC50 SOIV moi 0.2): 61 µM
EC50 ([2]; H1N1, A549, read-out: EC50 SOIV moi 2): 292 µM
CC50 [1]: 29500 µM
Inhibitor class across the tested viruses [3]: strong inhibitor
SI = CC50/EC50, H1N1 SOIV [4]: 482
EC50 [5, 16]: 48.4 µM
EC50 [5, 17]: 632 µM
EC50 ([5]; H5N1, A549, read-out: EC50 H5N1 moi 2): 632 µM
SI = CC50/EC50, H7N1 [11]: 1367
EC50 ([6]; read-out: EC50 H7N1 moi 0.2): 12.5 µM
EC50 ([6]; read-out: EC50 H7N1 moi 2): 32.4 µM
SI = CC50/EC50, H5N1 [13]: 911
EC50 ([7]; read-out: EC50 H5N2 moi 0.2): 6.71 µM
EC50 ([7]; read-out: EC50 H5N2 moi 2): 16.4 µM
EC50 [9, 18]: 6.63 µM
EC50 [9, 19]: 73.8 µM
EC50 ([9]; H1N1, A549, read-out: EC50 H1N1 moi 0.2): 6 µM

C1COC(NC(C2CC2)C2CC2)=N1 [Rilmenidine]
EC50 ([10]; read-out: EC50 H1N1 moi 0.2): 24.2 µM
EC50 ([10]; read-out: EC50 H1N1 moi 2): 506 µM
Inhibitor class / antiviral effect, H1N1 SOIV [4]: ineffective
EC50 ([4]; read-out: EC50 SOIV moi 0.2): 864 µM
EC50 ([4]; read-out: EC50 SOIV moi 2): 1070 µM
EC50 ([11]; read-out: EC50 H7N1 moi 0.2): 778 µM
EC50 ([11]; read-out: EC50 H7N1 moi 2): 1050 µM
EC50 ([13]; read-out: EC50 H5N1 moi 0.2): 1470 µM
EC50 ([13]; read-out: EC50 H5N1 moi 2): 2040 µM
CC50 [8]: 1130 µM
EC50 ([12]; read-out: EC50 H5N2 moi 0.2): 359 µM
EC50 ([12]; read-out: EC50 H5N2 moi 2): 514 µM

COc1cnc(NS(=O)(=O)c2ccc(N)cc2)nc1 [Sulfameter]
CC50 [1]: 4160 µM

CCCCCCCCNC(C)C(O)c1ccc(SC(C)C)cc1 (stereo not drawn) [Sulodictil]
CC50 [1]: 100 µM

CO[C@H]1/C=C\C=C(/C)C(=O)NC2=CC(=O)C(NCCN(C)C)=C(C[C@@H](C)C[C@H](OC)[C@H](O)[C@@H](C)/C=C(\C)[C@@H]1OC(N)=O)C2=O [alvespimycin, Alvespimycin]
CC50 [1]: > 10 µM
